Article PMC8174488, “4-Arylthiosemicarbazide derivatives as a new class of tyrosinase inhibitors and anti-Toxoplasma gondii agents” (Journal of Enzyme Inhibition and Medicinal Chemistry, 2021)

What was measured:
L929 cells = experiment: Cell viability assay (MTT, ISO 10993-5) on L929 mouse fibroblasts; type: cell-based; settings: 24 h, concentration for 30% inhibition of cell proliferation
Source text: First, we evaluated the cytotoxic effects of 1b–9b, which is necessary prior to measuring anti-Toxoplasma and Tyr inhibition in order to exclude cytotoxic compounds. […] Cytotoxicity was estimated using mouse fibroblast (L929) cells line via MTT assay, according to the international standards ISO 10993–5:2009(E). […] Therefore, the obtained results were expressed as CC30, which was defined as the highest concentration of the compound that causes 30% damage of cells and was considered according to ISO as non-toxic.
The L929 mouse fibroblast (ATTC® CCL-1™, Manassas, VA) was routinely maintained in RPMI 1640 media (R8758, Sigma-Aldrich, Suffolk, UK), supplemented with 10% foetal bovine serum (Foetal Bovine Serum, ATCC® 30–2020™), 100 I.U./mL penicillin and 100 µg/mL streptomycin (Penicillin-Streptomycin Solution ATCC® 30–2300™). Cells were trypsinised (Trypsin-EDTA Solution, 1X ATCC® 30–2101™) twice a week and seeded at a density of 1 × 10^6 per T25 cell culture flask and incubated at 37 °C and 10% CO2 to achieve a confluent monolayer.
Cell viability assay was performed according to international standards (ISO 10993–5:2009(E)), using tetrazolium salt (MTT, Sigma-Aldrich) and mouse fibroblasts L929 cells. Culture medium RPMI 1640, without phenol red (Biowest, Nuaille, France) supplemented with 10% FBS, 2 mM L-glutamine (Sigma-Aldrich), 100 I.U./mL penicillin, 100 µg/mL streptomycin were used. Briefly, 1 × 10^4/well of L929 cells were placed in 96-well plates and incubated for 24 h at 37 °C and 10% CO2. Afterwards, the old culture medium was replaced with 100 µL of the compound, drug or inhibitor, diluted in culture medium, and the cells treated for 24 h. Additionally, cells were treated with 0.03–4.0% concentration of DMSO as the solvent (data not shown). Then, 50 µL of 1 mg/mL of MTT solution in RPMI 1640 without phenol red was added to each well and incubated for 2 h at 37 °C and 10% CO2. Next, cell culture medium was aspirated carefully and 150 µL of DMSO was added to each well, and the plates were gently mixed. Then, 25 µL 0.1 M glycine buffer (pH 10.5) (Sigma-Aldrich) was added. The optical density at 570 nm using a multi-mode microplate reader SpectraMax® i3 (Syngen, Taipei City, Taiwan) was recorded. The results were expressed as a percentage of viability compared to untreated cells. All experiments were performed in triplicate. Cytotoxicity assay using human fibroblast Hs27 cells was also performed as described above (included in Supplementary Material).

T. gondii RH strain = experiment: Antiparasitic assay: T. gondii RH proliferation in Hs27 cells, [3H]uracil incorporation; type: cell-based, Toxoplasma gondii
Toxoplasma gondii = Toxoplasma gondii proliferation; cited from earlier work

COc1cc(Cc2cnc(N)nc2N)cc(OC)c1OC [Trimethoprim (TRI), Trimethoprim, reference compound]
CC30 (L929 cells): 61.25 µM
IC50 (T. gondii RH strain; Toxoplasma gondii, HS27): 50.9 µM
SR (selectivity ratio) (T. gondii RH strain; ratio of CC30 (L929) to IC50Tg): 1.20
IC50 (Toxoplasma gondii): 50.9 µM
